Measured values: patent publication US6706663B2, “Herbicidal 3-heterocyclic substituted benzisothiazole and benzisoxazole compounds” (Wyeth, priority 2000, dated 2004)

Key:
[1] = tested on: ZEAMX (Corn, Field); assay: Preemergence herbicidal evaluation; assay type: in vivo, Zea mays, L.; conditions: Rate 0.2500 kg/ha; preemergence; rated 4-5 weeks after treatment
[2] = tested on: CHEAL (Chenopodium album); assay: Preemergence herbicidal evaluation; assay type: in vivo, L.; conditions: Rate 0.2500 kg/ha; preemergence; rated 4-5 weeks after treatment
How it was run: (§1)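 Applied before emergence as an aqueous acetone spray over seeded soil. Read-out: 0–9 visual rating covering plant stand, vigor, size, chlorosis, malformation and overall appearance compared with control, taken 4–5 weeks after spraying.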

[3] = tested on: CASOB (Cassia obtusifolia); assay: Preemergence herbicidal evaluation; assay type: in vivo, L.; conditions: Rate 0.2500 kg/ha; preemergence; rated 4-5 weeks after treatment
How it was run: as §1

[4] = tested on: AMBEL (Ambrosia artemisifolia); assay: Preemergence herbicidal evaluation; assay type: in vivo, L.; conditions: Rate 0.2500 kg/ha; preemergence; rated 4-5 weeks after treatment
How it was run: as §1

[5] = tested on: IPOHE (Ipomoea hederacea); assay: Preemergence herbicidal evaluation; assay type: in vivo, (L.) Jacq.; conditions: Rate 0.2500 kg/ha; preemergence; rated 4-5 weeks after treatment
[6] = tested on: GLXMAW (Soybean, Williams); assay: Postemergence herbicidal evaluation; assay type: in vivo, Glycine max, (L.) Merr. cv Williams; conditions: rate 0.0620 kg/ha
How it was run: (§2)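 Seedlings grown about two weeks in flats, sprayed, then kept under standard greenhouse care. Rated visually 4–5 weeks after treatment on a 0–9 scale (stand, vigour, malformation, size, chlorosis, overall appearance) relative to untreated control; repeat tests averaged.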

[7] = tested on: ECHCG (Echinochloa crus-galli); assay: Postemergence herbicidal evaluation; assay type: in vivo, (L.) Beau; conditions: rate 0.0620 kg/ha
How it was run: as §2

[8] = tested on: TRZAWR (Wheat, Winter, cv Riband); assay: Postemergence herbicidal evaluation; assay type: in vivo, Triticum aestivum; conditions: rate 0.0620 kg/ha
How it was run: as §2

[9] = tested on: ABUTH (Abutilon theophrasti); assay: Postemergence herbicidal evaluation; assay type: in vivo, Medic.; conditions: rate 0.0620 kg/ha
How it was run: as §2

[10] = tested on: ORYSAT (Rice, Tebonnet); assay: Preemergence herbicidal evaluation; assay type: in vivo, Oryza sativa, (L.) Tebonnet; conditions: Rate 0.2500 kg/ha; preemergence; rated 4-5 weeks after treatment
[11] = tested on: IPOHE (Ipomoea hederacea); assay: Postemergence herbicidal evaluation; assay type: in vivo, (L.) Jacq.; conditions: rate 0.0620 kg/ha
How it was run: as §2

[12] = tested on: SAGPY (Sagittaria pygmaea); assay: Flooded paddy, preemergence weed control; assay type: in vivo, L.; conditions: rate 0.1250 kg/ha, rated 3-4 weeks after treatment, 0-9 rating scale
How it was run: (§3)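 Scoring used a 0-9 visual scale relative to control. Before that, seeds or propagules were planted shallowly in silt loam and flooded to 1.5–3 cm, a depth maintained throughout, with greenhouse care during the test.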

[13] = tested on: GALAP (Galium aparine); assay: Postemergence herbicidal evaluation; assay type: in vivo; conditions: rate 0.0620 kg/ha
How it was run: as §2

[14] = tested on: MOOVA (Monochoria vaginalis); assay: Flooded paddy, preemergence weed control; assay type: in vivo, Presl.; conditions: rate 0.1250 kg/ha, rated 3-4 weeks after treatment, 0-9 rating scale
How it was run: as §3

[15] = tested on: CHEAL (Chenopodium album); assay: Postemergence herbicidal evaluation; assay type: in vivo, L.; conditions: rate 0.0620 kg/ha
How it was run: as §2

[16] = tested on: CASOB (Cassia obtusifolia); assay: Postemergence herbicidal evaluation; assay type: in vivo, L.; conditions: rate 0.0620 kg/ha
How it was run: as §2

[17] = tested on: AMBEL (Ambrosia artemisifolia); assay: Postemergence herbicidal evaluation; assay type: in vivo, L.; conditions: rate 0.0620 kg/ha
How it was run: as §2

[18] = tested on: ZEAMX (Corn, Field); assay: Postemergence herbicidal evaluation; assay type: in vivo, Zea mays, L.; conditions: rate 0.0620 kg/ha
How it was run: as §2

[19] = tested on: ORYSAT (Rice, Tebonnet); assay: Postemergence herbicidal evaluation; assay type: in vivo, Oryza sativa, (L.) Tebonnet; conditions: rate 0.0620 kg/ha
How it was run: as §2

[20] = tested on: ECHORC (Echinochloa oryzoides); assay: Flooded paddy, preemergence weed control; assay type: in vivo, Echinochloa oryzoides (Ard.) Fritsch.; conditions: rate 0.1250 kg/ha, rated 3-4 weeks after treatment, 0-9 rating scale
How it was run: as §3

[21] = tested on: GALAP (Galium aparine); assay: Preemergence herbicidal evaluation; assay type: in vivo; conditions: Rate 0.2500 kg/ha; preemergence; rated 4-5 weeks after treatment
How it was run: as §1

[22] = tested on: CYPIR (Cyperus iria); assay: Flooded paddy, preemergence weed control; assay type: in vivo; conditions: rate 0.1250 kg/ha, rated 3-4 weeks after treatment, 0-9 rating scale
How it was run: as §3

[23] = tested on: GLXMAW (Soybean, Williams); assay: Preemergence herbicidal evaluation; assay type: in vivo, Glycine max, (L.) Merr. cv Williams; conditions: Rate 0.2500 kg/ha; preemergence; rated 4-5 weeks after treatment
[24] = tested on: ABUTH (Abutilon theophrasti); assay: Preemergence herbicidal evaluation; assay type: in vivo, Medic.; conditions: Rate 0.2500 kg/ha; preemergence; rated 4-5 weeks after treatment
[25] = tested on: CYPSE (Cyperus serotinus); assay: Flooded paddy, preemergence weed control; assay type: in vivo, Rottb.; conditions: rate 0.1250 kg/ha, rated 3-4 weeks after treatment, 0-9 rating scale
Description: Results of herbicide evaluation are expressed on a rating scale (0-9). The scale is based upon a visual observation of plant stand, vigor, malformation, size, chlorosis and overall plant appearance as compared with a control.
Preemergence herbicidal activity under flooded paddy conditions is determined as follows: plant seeds or propagating organs are planted in the top 0.5 cm of silt loam soil in 32 oz. plastic containers with a diameter of 10.5 cm and no drainage holes. Water is added to these containers and maintained at 1.5 to 3 cm above the soil surface for the duration of the experiment. The test compounds are applied as aqueous/acetone mixtures 50/50 v/v pipetted directly into the flood water to give the equivalent of about 0.0080 to 0.1250 kg/ha of active ingredient. The treated containers are placed on greenhouse benches and cared for in accordance with conventional greenhouse procedures. Three to four weeks after treatment, the test is terminated and each container is examined and herbicidal effect rated according to the rating system provided in Example 87.

[26] = tested on: TRZAWR (Wheat, Winter, cv Riband); assay: Preemergence herbicidal evaluation; assay type: in vivo, Triticum aestivum; conditions: Rate 0.2500 kg/ha; preemergence; rated 4-5 weeks after treatment
How it was run: as §1

[27] = tested on: SETVI (Setaria viridis); assay: Postemergence herbicidal evaluation; assay type: in vivo, (L.) Beau; conditions: rate 0.0620 kg/ha
How it was run: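 Seedlings about two weeks old were sprayed with compound in 50/50 acetone/water plus 0.5% TWEEN 20, at the equivalent of about 0.0040 to 1.000 kg/ha. Plants were kept in a greenhouse and visually rated 0-9 against a control four to five weeks after treatment. Repeat tests were averaged.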

[28] = tested on: SETVI (Setaria viridis); assay: Preemergence herbicidal evaluation; assay type: in vivo, (L.) Beau; conditions: Rate 0.2500 kg/ha; preemergence; rated 4-5 weeks after treatment
How it was run: as §1

[29] = tested on: ECHCG (Echinochloa crus-galli); assay: Preemergence herbicidal evaluation; assay type: in vivo, (L.) Beau; conditions: Rate 0.2500 kg/ha; preemergence; rated 4-5 weeks after treatment
How it was run: as §1

[30] = tested on: ORYSAT (Rice, Tebonnet); assay: Flooded paddy, post-transplant rice tolerance; assay type: in vivo, Oryza sativa, (L.) Tebonnet; conditions: flooded paddy, post-transplant rice; rate 0.1250 kg/ha; rated 3-4 weeks after treatment; 0-9 rating scale
How it was run: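 Seedlings aged ten days are transplanted in pairs into undrained pots of silt loam, which are then flooded to a depth of 1.5 to 3 cm. After herbicide application the pots are kept in a greenhouse with the flood maintained. Plants are rated 0-9 by visual comparison with controls.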

Row | Structure (SMILES) | ZEAMX preemergence herbicidal rating [1] | CHEAL preemergence herbicidal rating [2] | CASOB preemergence herbicidal rating [3] | AMBEL preemergence herbicidal rating [4] | IPOHE preemergence herbicidal rating [5] | Postemergence herbicidal rating, GLXMAW [6] | Postemergence herbicidal rating, ECHCG [7] | Postemergence herbicidal rating, TRZAWR [8] | Postemergence herbicidal rating, ABUTH [9] | ORYSAT preemergence herbicidal rating [10] | Postemergence herbicidal rating, IPOHE [11] | herbicidal rating, SAGPY [12] | Postemergence herbicidal rating, GALAP [13] | herbicidal rating, MOOVA [14] | Postemergence herbicidal rating, CHEAL [15] | Postemergence herbicidal rating, CASOB [16] | Postemergence herbicidal rating, AMBEL [17] | Postemergence herbicidal rating, ZEAMX [18] | Postemergence herbicidal rating, ORYSAT [19] | herbicidal rating, ECHORC [20] | also measured
1 | Cn1c(C(F)(F)F)cc(=O)n(-c2ccc3snc(-c4cccnc4)c3c2)c1=O [Compound 11, 1-methyl-3-[3-(3-pyridyl)-1,2-benzisothiazol-5-yl]-6-(trifluoromethyl)uracil] | 5.5 | 9.0 | 9.0 | 9.0 | 7.0 | 6.5 | 0.0 | 3.5 | 9.0 | 5.0 | 9.0 | 0.0 | 6.0 | 9.0 | 8.0 | 1.0 | 9.0 | 5.5 | 3.5 | 5.0 | GALAP preemergence herbicidal rating [21]: 9.0; herbicidal rating, CYPIR [22]: 9.0; GLXMAW preemergence herbicidal rating [23]: 7.5; ABUTH preemergence herbicidal rating [24]: 9.0; herbicidal rating, CYPSE [25]: 0.0; TRZAWR preemergence herbicidal rating [26]: 4.0; Postemergence herbicidal rating, SETVI [27]: 7.0; SETVI preemergence herbicidal rating [28]: 9.0; ECHCG preemergence herbicidal rating [29]: 8.0; herbicidal rating, ORYSAT (rice tolerance) [30]: 3.0
2 | C[C@@H]1O[C@@H]1c1nsc2ccc(-n3c(=O)cc(C(F)(F)F)n(C)c3=O)cc12 [Compound 13, 3-[3-[(1R,2S)-1,2-epoxypropyl]-1,2-benzisothiazol-5-yl]-1-methyl-6-(trifluoromethyl)uracil] | 7.0 | 9.0 | 9.0 | 9.0 | 9.0 | 7.0 | 3.0 | 3.0 | 9.0 | 7.5 | 7.0 | 4.0 | 9.0 | 9.0 | 6.0 | 5.0 | 9.0 | 5.0 | 3.0 | 6.0 | GALAP preemergence herbicidal rating [21]: 9.0; herbicidal rating, CYPIR [22]: 8.0; GLXMAW preemergence herbicidal rating [23]: 7.5; ABUTH preemergence herbicidal rating [24]: 9.0; herbicidal rating, CYPSE [25]: 6.5; TRZAWR preemergence herbicidal rating [26]: 5.0; Postemergence herbicidal rating, SETVI [27]: 7.0; SETVI preemergence herbicidal rating [28]: 9.0; ECHCG preemergence herbicidal rating [29]: 9.0; herbicidal rating, ORYSAT (rice tolerance) [30]: 7.5
3 | C[C@H]1O[C@@H]1c1nsc2ccc(-n3c(=O)cc(C(F)(F)F)n(C)c3=O)cc12 [Compound 14, 3-[3-[(1R,2R)-1,2-epoxypropyl]-1,2-benzisothiazol-5-yl]-1-methyl-6-(trifluoromethyl)uracil] | 8.5 | 9.0 | 9.0 | 9.0 | 9.0 | 7.5 | 2.0 | 6.5 | 9.0 | 9.0 | 9.0 | 9.0 | 9.0 | 9.0 | 8.0 | 2.0 | 9.0 | 6.0 | 6.0 | 8.0 | GALAP preemergence herbicidal rating [21]: 9.0; herbicidal rating, CYPIR [22]: 9.0; GLXMAW preemergence herbicidal rating [23]: 8.0; ABUTH preemergence herbicidal rating [24]: 9.0; herbicidal rating, CYPSE [25]: 8.0; TRZAWR preemergence herbicidal rating [26]: 9.0; Postemergence herbicidal rating, SETVI [27]: 3.0; SETVI preemergence herbicidal rating [28]: 9.0; ECHCG preemergence herbicidal rating [29]: 9.0; herbicidal rating, ORYSAT (rice tolerance) [30]: 9.0
